Reference: US3984410A, “Isourea acetylphosphate insecticides” (priority 1975, dated 1976)

Assays:
Format in all cases: in vivo
[1] = system: housefly (Musca domestica L.); assay: Housefly mortality, residue on aluminum dishes; conditions: 25 3-day old female houseflies; mortality after 48 hours
Protocol: Test compounds are diluted in acetone and aliquots are pipetted onto the bottom of 55 × 15 mm aluminum dishes. To insure even spreading of the chemical on the bottom of the dishes, 1 ml of acetone containing 0.02% peanut oil is also added to each dish. After all solvents have evaporated the dishes are placed in circular cardboard cages containing 25 3-day old female houseflies. The cages are covered on the bottom with cellophane and the top with tulle netting, and each contains a sugar-water saturated cotton plug for maintenance of the flies. Mortality is recorded after 48 hours. Test levels range from 100 μg/25 F. houseflies down to that at which approximately 50% mortality occurs.

[2] = system: Green Peach Aphid [Myzus persicae (Sulzer)]; assay: Green Peach Aphid spray on radish plants; conditions: sprayed to runoff on radish plants; mortality after 48 hours
Protocol: Radish plants (Rhaphanus sativus), approximately 2 cm tall, are transplanted into sandy loam soil in 3-inch clay pots and infested with 25-50 green peach aphids of mixed ages. Twenty-four hours later they are sprayed, to the point of runoff, with 50--50 acetone-water solutions of the test chemicals. Treated plants are held in the greenhouse and mortality is recorded after 48 hours. Test concentrations range from 0.05% down to that at which 50% mortality occurs.

[3] = system: Black Bean Aphid [Aphis fabae (Scop.)]; assay: Direct Spray Assay on Black Bean Aphid; conditions: direct spray on nasturtium plants; mortality after 7 days
Protocol: Nasturtium plants (Tropaeolum sp.), approximately 5 cm tall, are transplanted into sandy loam soil in 3-inch clay pots and infested with 25-50 black bean aphids of mixed ages. Twenty-four hours later they are sprayed, to the point of runoff, with 50--50 acetone-water solutions of the test chemicals. Treated plants are held in the greenhouse and mortality is recorded after 7 days. Test concentrations range from 0.05% down to that at which 50% mortality occurs.

[4] = system: Black Bean Aphid [Aphis fabae (Scop.)]; assay: Systemic Assay on Black Bean Aphid; conditions: soil, 168 h, read-out: Insecticide Activity - Approximate LD50, BAS (Black Bean Aphid - systemic)
Protocol: Test chemicals are diluted in acetone and aliquots are thoroughly mixed into 500 grams of dry, sandy loam soil. The treated soil is placed in a pint ice cream carton and a nasturtium plant (Tropaeolum sp.) approximately 5 cm tall is transplanted into each carton. The plants are then infested with approximately 25 black bean aphids of mixed ages and placed in the greenhouse. Seven days later mortality is recorded. Test concentrations range from 10 PPM down to that at which approximately 50% mortality occurs.

[5] = system: Lygus Bug [Lygus hesperus (Knight)]; assay: Lygus Bug spray; conditions: spray on adult bugs; mortality after 48 hours
Protocol: Test compounds are in a 50--50 acetone-water solution. Two cc of the solutions are sprayed through a Devilbiss type EGA hand spray gun into circular cardboard cages containing one string bean pod and ten adult lygus bugs. The test cages are covered on the bottom with cellophane and the top with tulle netting. Percent mortality is recorded 48 hours later. Test concentrations range from 0.05% down to that at which approximately 50% mortality occurs.

[6] = system: German Cockroach [Blattella germanica (Linne)]; assay: German Cockroach spray; conditions: 168 h
Protocol: Test compounds are diluted in a 50--50 acetone-water solution. Two cc of the solutions are sprayed through a DeVilbiss type EGA hand spray gun into circular cardboard cages containing 10 l-month-old German cockroach nymphs. The test cages are covered on the bottom with cellophane and the top with tulle netting. Percent mortality is recorded 7 days later. Test concentrations range from 0.1% down to that at which approximately 50% mortality occurs.

[7] = system: Cabbage Looper [Trichoplusia ni (Hubner)]; assay: Cabbage Looper on dipped squash cotyledons; conditions: second-instar larvae, cotyledon dip; 48 hours plus 5 days
Protocol: (§1) Test compounds are diluted in a 50--50 acetone-water solution. Cotyledons of hyzini squash (Calabacita abobrinha), approximately 1 × 1.5 inches, are immersed in the test solutions for 2-3 seconds and placed on a wire screen to dry. The dried leaves are placed in petri dishes containing a moistened piece of filter paper and infested with five second-instar cabbage looper larvae. Mortality of the larvae is recorded 48 hours later, and a piece of synthetic media is added to dishes containing survivors. These are then held for 5 additional days to observe for any delayed effects of the test chemicals. Test concentrations range from 0.1% down to that at which approximately 50% mortality occurs.

[8] = system: Tobacco Budworm [Heliothis virescens (F.)]; assay: Tobacco Budworm on dipped Romaine lettuce leaves; conditions: larvae, Romaine lettuce leaf dip; 48 hours plus 5 days
Protocol: as §1
The procedure is the same as that used for the cabbage looper, except that sections of Romaine lettuce (Latica sativa) leaves were used instead of cotyledons of hyzini squash.

[9] = system: Southern House Mosquito [Culex pipiens quinquefasciatus (Say)]; assay: Southern House Mosquito larvae in aqueous solution; conditions: 48 h, read-out: Insecticide Activity - Approximate LD50, MOS (Southern House Mosquito)
Protocol: Insecticidal activity is determined using third-instar larvae of the mosquito (Culex pipiens quinquefasciatus). Ten larvae are placed in a 6-ounce, number 67 Dixie wax paper cup containing 100 ml of an aqueous solution of the test chemical. The treated larvae are stored at 70°F, and 48 hours later the mortality is recorded. Test concentrations range from 0.5 PPM down to that at which approximately 50% mortality occurs.

CCOP(=S)(OCC)SCC(=O)N=C(OC)N(C)c1ccccc1 [Compound 8]
Insecticide Activity - Approximate LD50, HF (Housefly) [1]: 30 μg/25 F.
Insecticide Activity - Approximate LD50, GPA (Green Peach Aphid) [2]: .03%
Insecticide Activity - Approximate LD50, BA (Black Bean Aphid - direct spray) [3]: .0008%
LC50 [4]: > 1 µg/mL
Insecticide Activity - Approximate LD50, LB (Lygus Bug) [5]: > .05%
Insecticide Activity - Approximate LD50, GR (German Cockroach) [6]: > .05%
Insecticide Activity - Approximate LD50, CL (Cabbage Looper) [7]: > .1%
Insecticide Activity - Approximate LD50, TBW (Tobacco Budworm) [8]: .1%
LC50 [9]: > 1 µg/mL
